In ChEMBL document CHEMBL1132832, “Programmed cell death (PCD) associated with the stilbene motif of arotinoids: discovery of novel apoptosis inducer agents possessing activity on multidrug resistant tumor cells” (Bioorg Med Chem Lett, 2000) one finds AC50 and IC50 data, which are given here for 18 molecules.

A value given as a limit tells only on which side of the number the result lay.

Type in all cases: functional, cell-based
The subject of assay [1] is HL-60. Description: In vitro apoptotic activity against HL60 cells after 48 hr of treatment. The settings on record: Homo sapiens, HL-60, 48 h.
Assay [2] deals with HL-60. Put plainly: In vitro cytotoxicity against HL60 cells. The settings on record: Homo sapiens.
Assay [3] deals with HL-60. Description: The compound evaluated for apoptotic activity against multi drug resistant HL60 R cells (the results were obtained after 48 hr treatment). To be noted: Homo sapiens, HL-60, 48 h.
The test system of assay [4] is HL-60. Description: The compound evaluated for Cytotoxic activity against multi drug resistant HL60R cells (the results were obtained after 48 hr treatment). To be noted: Homo sapiens, HL-60, 48 h.
The subject of assay [5] is HuT78. Put plainly: The compound evaluated for apoptotic activity against multi drug resistant HUT 78 cells (the results were obtained after 48 hr treatment). The settings on record: Homo sapiens, HuT78, 48 h.
Assay [6] concerns HuT78. Put plainly: The compound evaluated for Cytotoxic activity against multi drug resistant HUT 78 cells (the results were obtained after 48 hr treatment). To be noted: Homo sapiens, HuT78, 48 h.
Assay [7] concerns K562. Description: The compound evaluated for Cytotoxic activity against multi drug resistant K562 cells (the results were obtained after 48 hr treatment). The settings on record: Homo sapiens, K562, 48 h.
For assay [8], the system named is K562. Description: The compound evaluated for apoptotic activity against K562 cells (the results were obtained after 48 hr treatment). To be noted: Homo sapiens, K562, 48 h.
The test system of assay [9] is HuT78. Put plainly: The compound evaluated for apoptotic activity against HUT 78 cells (the results were obtained after 48 hr treatment). To be noted: Homo sapiens, HuT78, 48 h.

One may read the AC50 as the concentration at which the activity in the assay is half-maximal. Usually IC50 stands for the concentration needed to halve the response being measured. High values mean weaker potency in that assay, low ones greater potency in that assay. In turn, `C/C(=C\c1ccc(C(=O)O)cc1)c1ccc2c(c1)C(C)(C)CCC2(C)C` registered a half-maximal activity concentration (AC50) in the assay on HL-60 [1] greater than 100 µM. This molecule also came in with an IC50 in the assay on HL-60 [2] of 46 µM.
For `COc1ccc(/C=C(/C)c2ccc3c(c2)C(C)(C)CCC3(C)C)cc1N`, in that order: 90 µM and 42 µM.
Take `COc1ccc(/C=C(\C)c2ccc3c(c2)C(C)(C)CCC3(C)C)cc1N`: in the assay on HL-60 [1], the AC50 was 40 µM. The molecule further registered a half-maximal inhibitory concentration (IC50) with HL-60 [2] of 20 µM.
The like results for `C/C(=C/c1ccc(C(=O)O)cc1)c1ccc2c(c1)C(C)(C)CCC2(C)C` were, in that order, 40 µM and 10 µM.
The molecule `C/C(=C\c1cccc(C(=O)O)c1)c1ccc2c(c1)C(C)(C)CCC2(C)C` displayed a concentration at half-maximal activity (AC50) in the assay with HL-60 [1] greater than 100 µM. Also, the IC50 in the assay with HL-60 [2] is greater than 100 µM.
Regarding `COc1ccc(/C=C/c2ccc3c(c2)C(C)(C)CCC3(C)C)cc1`, in the assay with HL-60 [1], the half-maximal activity concentration (AC50) was greater than 100 µM. In the assay on HL-60 [2], this molecule showed an IC50 of 50 µM.
For `COc1ccc(/C=C\c2ccc3c(c2)C(C)(C)CCC3(C)C)cc1`, in that order: greater than 100 µM and 50 µM.
In the assay on HL-60 [1], `COc1ccc(/C=C/c2ccc3c(c2)C(C)(C)CCC3(C)C)cc1N` gave a half-maximal activity concentration (AC50) of 85 µM. Besides, the IC50 with HL-60 [2] is 61 µM.
Molecule `C/C(=C/c1cccc(C(=O)O)c1)c1ccc2c(c1)C(C)(C)CCC2(C)C` displayed an AC50 with HL-60 [1] of 80 µM. Inhibition in the assay on HL-60 [2] was half-maximal at 50 µM (IC50).
As for `CC1(C)CCC(C)(C)c2cc(/C=C\c3ccc(N)cc3)ccc21`, the concentration at half-maximal activity (AC50) in the assay with HL-60 [3] is greater than 100 µM; with HL-60 [1], 38 µM; in the assay with HuT78 [5], greater than 100 µM; in the assay on K562 [8], greater than 100 µM. Also, the IC50 was 25 µM in the assay with HL-60 [4], 18 µM in the assay with HL-60 [2], 43 µM with HuT78 [6] and 50 µM in the assay on K562 [7].
`COc1ccc(/C=C\c2ccc3c(c2)C(C)(C)CCC3(C)C)cc1N`: the AC50 stood at 46 µM in the assay on HuT78 [9], 87 µM with HL-60 [3], 50 µM with HL-60 [1] and 50 µM in the assay on K562 [8]. Besides, the concentration for half-maximal inhibition (IC50) in the assay with HL-60 [4] came out at 48 µM; with HL-60 [2] it was 25 µM; in the assay with HuT78 [6], 22 µM; with K562 [7] it was 42 µM.
Consider `CC1(C)CCC(C)(C)c2cc(/C=C/c3ccc(N)cc3)ccc21`, for which, in the assay on HL-60 [1], the concentration at half-maximal activity (AC50) stood at 38 µM. Besides, the half-maximal inhibitory concentration (IC50) in the assay with HL-60 [2] was determined as 18 µM.
For `CC1(C)CCC(C)(C)c2cc(/C=C\c3cccc(N)c3)ccc21`, the half-maximal activity concentration (AC50) in the assay on HuT78 [9] is 10 µM; in the assay on HL-60 [3], 25 µM; with HL-60 [1], 10 µM; in the assay on K562 [8], 27 µM. The IC50 with HL-60 [4] came out at 15 µM; with HL-60 [2], 10 µM; in the assay with HuT78 [6], 5 µM; with K562 [7], 13 µM.
On to `C/C(=C/c1ccccc1C(=O)O)c1ccc2c(c1)C(C)(C)CCC2(C)C`, for which half-maximal activity in the assay on HL-60 [1] (AC50) was put at 90 µM. In the assay on HL-60 [2], this molecule returned an IC50 of 52 µM.
For `CC1(C)CCC(C)(C)c2cc(/C=C/c3cccc(N)c3)ccc21`, in that order: 40 µM and 20 µM.
For `C/C(=C\c1ccccc1C(=O)O)c1ccc2c(c1)C(C)(C)CCC2(C)C`, in that order: greater than 100 µM and greater than 100 µM.
As for `C/C(=C/c1cc(C(=O)O)no1)c1ccc2c(c1)C(C)(C)CCC2(C)C`, the AC50 with HL-60 [1] turned out to be 47 µM. For the same molecule, 26 µM corresponded to half-maximal inhibition in the assay with HL-60 [2] (IC50).
As for `CC1=C(/C=C/C(C)=C/C=C/C(C)=C/C(=O)O)C(C)(C)CCC1` [TRETINOIN], in the assay with HL-60 [1], the AC50 is greater than 100 µM.
